Measured values from publication PMC12162926, “A novel strategy for identifying hepatotoxic constituents in traditional Chinese medicine using dose-normalized intracellular accumulation as a cytotoxicity indicator: a case study of Jinlingzi San” (Frontiers in Pharmacology, 2025).

Assays:
[1] = Stability of analytes in cell lysates (LC–MS/MS method validation); type: physicochemical; details: n=3; for Post-preparation stability RE%: 4 ℃, 24 h at autosampler; for Short-term stability RE%: 12 h at room temperature; for Long-term stability RE%: -80℃ for a month; for Freeze-thaw stability RE%: three freeze-thaw
Description: The stability of seven analytes including short-term stability (12 h at room temperature), post-preparation stability at 4 ℃ (24 h at autosampler), freeze-thaw stability (three freeze-thaw stability) and long-term stability (-80℃ for a month) was tested by analyzing three replicates at low and high QC levels during various sample storage and handling process.

[2] = parameters: method as in Gu et al., 2021; details: pharmacokinetic level, JLZS vs single herb; ref Gu et al., 2021; cited from earlier work
[3] = tested on: L-02 cells; experiment: Intracellular identification of L-02 cell-uptake components by LC–MS/MS; type: in vitro ADME, human; details: L-02 exposed to JLZS-containing medium 6.5 mg/mL for 2 h
Description: The powder of 25 g FT and 25 g RC was evenly blended and then refluxed twice with six-fold 50% ethanol (1: 6, w/v) for 1 h; the collected filtrate was evaporated to dryness and further dissolved in DMSO, after filtering using the 0.22-µm cellulose acetate membrane. JLZS-containing medium (6.5 mg/mL) was freshly prepared by diluting the filtrate with RPMI-1640. Likewise, RC-containing medium was freshly prepared in the same method independently.
L-02 cells were seeded on 9-cm-diameter cell culture plates; after ∼80% confluent, the cultured cells were incubated with 6.5 mg/mL JLZS-containing medium. After 2-h exposure, L-02 cells were quickly washed free of culture medium with cold PBS (−) twice and harvested with 1 mL of 0.25% trypsin-EDTA for cell isolation. The cell suspension (∼5 × 10^6 cells) was spun down, and the cells were further washed twice in cold PBS (−). Then, 200 µL of methanol was used to lyse the collected cells with vortex mixing for 1 min. The cell lysates were centrifuged at 12,000 rpm for 4 min, and 10 μL of the centrifugal supernatant was injected into the LC–MS/MS system for identified analysis.
The LC–MS/MS system consisted of a Thermo TSQ Quantum Ultra triple-quadrupole mass spectrometer equipped with an electrospray ionization source (San Jose, CA, United States). LCquan quantitation software (version 2.5.6, Thermo Fisher Scientific, Waltham, MA, USA) was used to control the LC–MS/MS system for data acquisition and analysis. Analytes and IS separation were conducted using a Waters XTerra® MS C18 column (3.0 mm × 50 mm, 5 µm) maintained at 20 °C. By injecting 5 µL samples with a flow rate of 0.2 mL/min, chromatographic separation was achieved using a mobile phase of 0.1% formic acid–water (A) and methanol (B) via gradient elution, 0.0–2.0 min, 35%–50% B; 2.0–2.1 min, 50%–55% B; 2.1–2.5 min, 55%–60% B; 2.5–14.0 min, 60% B. The analytes and IS were detected in the ESI source by polarity switching from positive for 0.0–8.0 min to negative-ion modes for 8.5–14.0 min in a single run with multiple reaction monitoring (MRM).

[4] = tested on: L-02 cells; experiment: Intracellular accumulation in L-02 cells by LC–MS/MS; type: in vitro ADME, human; details: for Intracellular concentration: L-02, JLZS extracts 6.5 mg/mL, n = 6
[5] = tested on: L-02 cells; experiment: Cell growth inhibition assay (CCK-8); type: cell-based, human; details: L-02, 24 h exposure, single compounds

CC(=O)O[C@@H]1C[C@H](O)[C@@]23CO[C@@H](O)[C@]1(C)[C@@H]2C[C@@H](O)[C@]1(C)[C@@H]3C(=O)[C@H](OC(C)=O)[C@@]2(C)[C@H](c3ccoc3)C[C@H]3O[C@]321 [TSN, toosendanin]
Post-preparation stability RE% ([1]; high QC level): 0.1%
Post-preparation stability RE% ([1]; low QC level): 7.6%
Short-term stability RE% ([1]; high QC level): -0.1%
Short-term stability RE% ([1]; low QC level): 8.0%
Long-term stability RE% ([1]; high QC level): 8.6%
Long-term stability RE% ([1]; low QC level): 10.2%
Freeze-thaw stability RE% ([1]; high QC level): -4.0%
Freeze-thaw stability RE% ([1]; low QC level): 6.2%
elimination in the JLZS group compared with the single-herb group [2]: decreased significantly
detection in cell lysates [3]: found in the cell lysates
Intracellular concentration ([4]; time 0.25 h): 10.4 ± 1.1 ng/mL
Intracellular concentration ([4]; time 0.5 h): 13.6 ± 4.0 ng/mL
Intracellular concentration ([4]; time 1 h): 38.5 ± 10.2 ng/mL
Intracellular concentration ([4]; time 1.5 h): 32.8 ± 13.6 ng/mL
Intracellular concentration ([4]; time 2 h): 20.1 ± 2.8 ng/mL
Intracellular concentration ([4]; time 3 h): 23.8 ± 4.4 ng/mL
Intracellular concentration ([4]; time 5 h): 26.4 ± 9.2 ng/mL
Intracellular concentration ([4]; time 8 h): 15.5 ± 3.4 ng/mL
exposure time at highest intracellular concentration ([4]; L-02 exposed to JLZS 6.5 mg/mL): 1 h
IC50 (cell viability) [5]: not detected IC50 values within the set concentration range
